Key:
PRMT6 = target: T1, PRMT6 (Homo sapiens, UniProt Q96LA8); assay: HMT selectivity panel (Reaction Biology); type: biochemical; settings: substrate GST-GAR, read-out: Enzyme % Activity (relative to DMSO controls)
T1 construct: purchased Reaction Biology
Method: (§1) Table S1: Selectivity of the compound on a HMT panel (by Reaction Biology, USA) and on hDNMT3Acat (as described in Ceccaldi
(§2) Enzyme % Activity (relative to DMSO
(§3) Testing Concentration 10µM
(§4) Methyltransferase: Substrate: Activity enzyme in %

PRMT4 = target: T2, PRMT4 (Homo sapiens, UniProt Q86X55); assay: HMT selectivity panel (Reaction Biology); type: biochemical; settings: substrate Histone H3, read-out: Enzyme % Activity (relative to DMSO controls)
T2 construct: purchased Reaction Biology
T2 sequence (Q86X55 1-608): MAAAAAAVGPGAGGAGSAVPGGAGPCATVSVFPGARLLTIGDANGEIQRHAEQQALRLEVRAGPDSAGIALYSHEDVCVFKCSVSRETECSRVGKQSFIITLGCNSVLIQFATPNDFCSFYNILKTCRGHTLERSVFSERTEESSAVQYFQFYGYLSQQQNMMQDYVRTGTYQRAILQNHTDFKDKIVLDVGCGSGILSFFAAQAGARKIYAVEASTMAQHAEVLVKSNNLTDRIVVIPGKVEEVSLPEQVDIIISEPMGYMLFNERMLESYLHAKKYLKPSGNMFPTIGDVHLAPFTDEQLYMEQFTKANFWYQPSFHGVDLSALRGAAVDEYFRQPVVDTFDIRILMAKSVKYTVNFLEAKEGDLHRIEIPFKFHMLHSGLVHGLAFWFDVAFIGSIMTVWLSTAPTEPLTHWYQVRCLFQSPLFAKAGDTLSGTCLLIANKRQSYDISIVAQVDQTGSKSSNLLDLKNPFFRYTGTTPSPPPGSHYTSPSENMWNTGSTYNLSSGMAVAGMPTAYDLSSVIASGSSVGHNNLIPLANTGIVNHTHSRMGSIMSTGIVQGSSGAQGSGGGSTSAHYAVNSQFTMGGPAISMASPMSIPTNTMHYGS
Method: as §1, §2, §3, §4

SMYD2 = target: T3, SMYD2 (Homo sapiens, UniProt Q9NRG4); assay: HMT selectivity panel (Reaction Biology); type: biochemical; settings: substrate Histone H4, read-out: Enzyme % Activity (relative to DMSO controls)
T3 construct: purchased Reaction Biology
T3 sequence (Q9NRG4 whole entry): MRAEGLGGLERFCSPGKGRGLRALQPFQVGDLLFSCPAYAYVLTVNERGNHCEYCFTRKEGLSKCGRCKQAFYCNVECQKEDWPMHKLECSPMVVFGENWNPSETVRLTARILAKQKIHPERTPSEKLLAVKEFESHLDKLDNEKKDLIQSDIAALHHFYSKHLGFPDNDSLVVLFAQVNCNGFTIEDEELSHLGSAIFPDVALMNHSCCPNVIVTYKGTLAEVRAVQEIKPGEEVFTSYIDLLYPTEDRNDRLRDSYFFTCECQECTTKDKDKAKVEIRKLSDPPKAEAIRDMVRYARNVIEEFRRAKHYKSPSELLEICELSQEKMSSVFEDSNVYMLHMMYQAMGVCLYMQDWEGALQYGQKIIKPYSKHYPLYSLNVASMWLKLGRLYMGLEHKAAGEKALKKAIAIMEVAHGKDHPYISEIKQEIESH
Method: as §1, §2, §3, §4

G9a = target: T4, G9a (Homo sapiens, UniProt Q96KQ7); assay: HMT selectivity panel (Reaction Biology); type: biochemical; settings: substrate Histone H3 1-21, read-out: Enzyme % Activity (relative to DMSO controls)
T4 construct: purchased Reaction Biology
T4 sequence (Q96KQ7 1-1210): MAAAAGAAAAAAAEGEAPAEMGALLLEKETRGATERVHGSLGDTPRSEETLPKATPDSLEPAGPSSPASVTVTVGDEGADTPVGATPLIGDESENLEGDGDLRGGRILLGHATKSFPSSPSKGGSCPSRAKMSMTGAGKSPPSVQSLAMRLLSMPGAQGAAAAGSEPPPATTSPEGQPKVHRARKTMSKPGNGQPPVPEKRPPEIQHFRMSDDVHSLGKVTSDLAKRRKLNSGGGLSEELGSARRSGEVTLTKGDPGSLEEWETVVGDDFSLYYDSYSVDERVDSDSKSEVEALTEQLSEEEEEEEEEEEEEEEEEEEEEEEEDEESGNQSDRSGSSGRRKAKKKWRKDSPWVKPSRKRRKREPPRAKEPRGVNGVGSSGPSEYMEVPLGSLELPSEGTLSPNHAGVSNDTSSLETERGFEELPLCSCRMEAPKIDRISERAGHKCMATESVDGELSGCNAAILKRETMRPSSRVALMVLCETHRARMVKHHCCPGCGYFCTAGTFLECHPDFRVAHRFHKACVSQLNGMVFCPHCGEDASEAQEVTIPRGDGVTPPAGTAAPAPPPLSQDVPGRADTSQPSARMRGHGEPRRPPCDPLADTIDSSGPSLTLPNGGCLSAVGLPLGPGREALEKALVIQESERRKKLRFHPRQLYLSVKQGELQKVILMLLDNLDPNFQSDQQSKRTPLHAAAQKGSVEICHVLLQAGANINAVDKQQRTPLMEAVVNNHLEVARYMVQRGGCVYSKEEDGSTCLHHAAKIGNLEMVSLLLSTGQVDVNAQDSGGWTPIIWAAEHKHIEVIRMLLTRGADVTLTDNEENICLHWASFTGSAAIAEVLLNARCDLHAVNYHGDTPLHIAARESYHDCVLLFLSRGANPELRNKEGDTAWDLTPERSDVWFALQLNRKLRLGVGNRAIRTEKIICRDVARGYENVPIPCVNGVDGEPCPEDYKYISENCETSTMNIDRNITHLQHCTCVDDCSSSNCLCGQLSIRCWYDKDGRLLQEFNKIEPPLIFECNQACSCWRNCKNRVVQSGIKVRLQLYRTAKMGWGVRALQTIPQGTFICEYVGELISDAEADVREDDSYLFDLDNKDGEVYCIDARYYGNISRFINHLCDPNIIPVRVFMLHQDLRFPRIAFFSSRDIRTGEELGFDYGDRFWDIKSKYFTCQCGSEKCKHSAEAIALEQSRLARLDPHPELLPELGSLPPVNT
Method: as §1, §2, §3, §4

EZH2 Complex = target: T5, EZH2 Complex (Homo sapiens, UniProt Q15910); assay: HMT selectivity panel (Reaction Biology); type: biochemical; settings: substrate Core Histone, read-out: Enzyme % Activity (relative to DMSO controls)
T5 construct: purchased Reaction Biology
T5 sequence (Q15910 2-746 limits assumed): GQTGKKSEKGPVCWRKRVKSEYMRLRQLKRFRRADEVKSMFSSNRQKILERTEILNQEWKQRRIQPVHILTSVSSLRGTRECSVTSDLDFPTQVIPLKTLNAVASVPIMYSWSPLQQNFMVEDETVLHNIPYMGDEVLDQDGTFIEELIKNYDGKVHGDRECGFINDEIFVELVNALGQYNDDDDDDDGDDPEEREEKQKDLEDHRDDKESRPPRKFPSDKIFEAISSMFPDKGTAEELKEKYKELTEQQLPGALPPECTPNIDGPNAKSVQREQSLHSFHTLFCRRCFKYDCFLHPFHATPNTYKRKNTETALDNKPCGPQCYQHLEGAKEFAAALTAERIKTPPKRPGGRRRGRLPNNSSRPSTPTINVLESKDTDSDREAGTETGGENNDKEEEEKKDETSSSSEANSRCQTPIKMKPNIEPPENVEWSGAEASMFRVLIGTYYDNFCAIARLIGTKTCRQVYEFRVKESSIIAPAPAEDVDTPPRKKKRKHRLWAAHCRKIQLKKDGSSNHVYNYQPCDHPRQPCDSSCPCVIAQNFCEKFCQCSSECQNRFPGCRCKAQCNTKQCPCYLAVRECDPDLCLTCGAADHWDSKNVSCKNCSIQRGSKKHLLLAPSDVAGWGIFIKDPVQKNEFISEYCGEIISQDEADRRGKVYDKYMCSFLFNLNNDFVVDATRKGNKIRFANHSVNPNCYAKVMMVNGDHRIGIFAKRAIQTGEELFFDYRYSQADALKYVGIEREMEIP
T5 sequence (O75530 2-441 partner limits assumed): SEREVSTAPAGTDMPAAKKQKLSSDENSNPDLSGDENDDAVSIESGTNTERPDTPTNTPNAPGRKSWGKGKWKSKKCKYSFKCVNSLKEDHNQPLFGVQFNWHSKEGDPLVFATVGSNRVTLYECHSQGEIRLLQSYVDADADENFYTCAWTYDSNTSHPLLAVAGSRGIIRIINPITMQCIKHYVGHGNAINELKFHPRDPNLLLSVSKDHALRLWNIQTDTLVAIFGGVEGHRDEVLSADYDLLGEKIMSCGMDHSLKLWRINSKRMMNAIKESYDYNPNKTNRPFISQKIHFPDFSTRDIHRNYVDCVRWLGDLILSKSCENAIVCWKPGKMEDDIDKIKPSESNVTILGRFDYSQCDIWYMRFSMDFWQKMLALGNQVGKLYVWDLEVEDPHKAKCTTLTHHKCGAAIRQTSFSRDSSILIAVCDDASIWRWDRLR
T5 sequence (Q15022 2-739 partner limits assumed): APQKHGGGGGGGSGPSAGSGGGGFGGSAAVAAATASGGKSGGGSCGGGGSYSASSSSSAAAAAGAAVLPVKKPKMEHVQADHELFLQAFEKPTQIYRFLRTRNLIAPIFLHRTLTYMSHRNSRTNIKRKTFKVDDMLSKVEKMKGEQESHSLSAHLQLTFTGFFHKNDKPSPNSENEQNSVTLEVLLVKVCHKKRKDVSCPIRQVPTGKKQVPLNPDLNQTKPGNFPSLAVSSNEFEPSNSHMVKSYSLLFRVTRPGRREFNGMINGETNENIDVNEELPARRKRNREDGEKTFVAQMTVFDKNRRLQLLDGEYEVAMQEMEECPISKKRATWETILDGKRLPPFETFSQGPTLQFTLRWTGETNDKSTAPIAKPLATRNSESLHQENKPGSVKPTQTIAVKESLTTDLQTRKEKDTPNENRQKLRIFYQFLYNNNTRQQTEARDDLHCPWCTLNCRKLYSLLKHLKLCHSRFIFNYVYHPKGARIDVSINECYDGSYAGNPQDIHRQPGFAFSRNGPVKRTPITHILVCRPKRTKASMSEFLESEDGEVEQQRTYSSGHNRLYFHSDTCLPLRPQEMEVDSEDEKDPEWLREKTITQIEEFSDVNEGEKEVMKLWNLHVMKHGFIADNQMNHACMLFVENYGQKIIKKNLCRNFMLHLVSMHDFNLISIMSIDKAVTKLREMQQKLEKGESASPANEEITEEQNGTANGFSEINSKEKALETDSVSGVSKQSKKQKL
T5 sequence (Q09028 2-425 partner limits assumed): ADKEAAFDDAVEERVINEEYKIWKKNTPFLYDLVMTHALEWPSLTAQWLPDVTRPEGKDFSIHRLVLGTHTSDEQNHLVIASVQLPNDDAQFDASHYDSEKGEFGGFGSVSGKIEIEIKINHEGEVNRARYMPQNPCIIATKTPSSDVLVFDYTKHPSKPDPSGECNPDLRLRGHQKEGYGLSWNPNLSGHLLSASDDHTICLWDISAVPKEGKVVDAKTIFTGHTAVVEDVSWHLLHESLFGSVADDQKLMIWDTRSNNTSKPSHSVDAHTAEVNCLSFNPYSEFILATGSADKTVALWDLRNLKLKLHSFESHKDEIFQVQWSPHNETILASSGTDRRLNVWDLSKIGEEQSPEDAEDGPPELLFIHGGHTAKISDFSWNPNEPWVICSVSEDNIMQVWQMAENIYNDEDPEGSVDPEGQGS
T5 sequence (Q6ZN18 whole entry partner): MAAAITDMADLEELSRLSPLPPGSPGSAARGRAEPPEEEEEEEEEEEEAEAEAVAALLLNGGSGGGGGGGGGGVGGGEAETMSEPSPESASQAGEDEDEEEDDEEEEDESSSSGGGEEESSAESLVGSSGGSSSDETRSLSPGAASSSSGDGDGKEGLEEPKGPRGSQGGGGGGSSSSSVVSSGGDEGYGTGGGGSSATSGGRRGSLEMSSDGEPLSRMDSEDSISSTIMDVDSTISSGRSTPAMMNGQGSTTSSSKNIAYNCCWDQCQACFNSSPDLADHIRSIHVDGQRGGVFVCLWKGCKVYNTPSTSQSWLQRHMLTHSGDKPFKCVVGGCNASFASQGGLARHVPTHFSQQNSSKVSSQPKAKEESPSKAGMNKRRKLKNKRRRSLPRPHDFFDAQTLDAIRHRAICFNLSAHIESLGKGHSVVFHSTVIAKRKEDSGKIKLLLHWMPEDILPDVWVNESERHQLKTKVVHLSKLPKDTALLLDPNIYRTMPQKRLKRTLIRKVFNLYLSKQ
Method: as §1, §2, §3, §4

Microsomal stability = type: in vitro ADME
KOPN8 cells (MLL-ENL) = assay: Cell proliferation, trypan blue counting; type: cell-based; settings: Homo sapiens, KOPN-8, 360 h, 15-day treatment, read-out: EC50 of the proliferation inhibition
Method: (§5) For assessment of cell proliferation and viability in human cell lines, exponentially growing cells were placed, in triplicate, in 96-well plates at a density of 35,000 cells/well at a final volume of 100 µL. […] The viable cell number was determined every 3–4 days for up to 15 days to 21 days using trypan blue counting using Cellometer Disposable Counting Chambers for the Cellometer Mini Automated Cell Counter.

NOMO-1 cells (MLL-AF9) = assay: Cell proliferation, trypan blue counting; type: cell-based; settings: Homo sapiens, 360 h; NOMO-1 (AF9), 15-day treatment; read-out: EC50 of the proliferation inhibition
Method: as §5

T1 sequence (Q96LA8 whole entry): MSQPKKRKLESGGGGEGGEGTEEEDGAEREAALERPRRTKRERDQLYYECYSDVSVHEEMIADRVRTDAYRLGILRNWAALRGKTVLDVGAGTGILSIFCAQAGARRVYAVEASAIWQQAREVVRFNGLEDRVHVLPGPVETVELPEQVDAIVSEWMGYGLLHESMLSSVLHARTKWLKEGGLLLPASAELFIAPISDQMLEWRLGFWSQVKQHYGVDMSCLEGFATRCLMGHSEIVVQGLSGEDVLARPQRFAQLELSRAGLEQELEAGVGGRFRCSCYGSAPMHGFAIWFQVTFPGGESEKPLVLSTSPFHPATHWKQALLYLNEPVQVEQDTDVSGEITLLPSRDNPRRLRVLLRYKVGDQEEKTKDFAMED

CC(C)[C@H](CCCNC(=O)Nc1ccc(C(C)(C)C)cc1)N[C@H]1C[C@@H](n2cnc3c(N)ncnc32)[C@H](O)[C@@H]1O [Dia2, 1-((S)-4-(((1S,2R,3S,4R)-4-(6-amino-9H-purin-9-yl)-2,3-dihydroxycyclopentyl)amino)-5-methylhexyl)-3-(4-(tert-butyl)phenyl)urea]
remaining activity at 10 µM (PRMT6): 95 ± 1%
remaining activity at 10 µM (PRMT4): 92 ± 1%
remaining activity at 10 µM (SMYD2): 92 ± 1%
remaining activity at 10 µM (G9a): 97 ± 1%
remaining activity at 10 µM (EZH2 Complex): 86 ± 1%
half-life increase (Microsomal stability; mouse liver microsomes, versus EPZ-4777 and EPZ-5676): 2 fold
microsomal CLint (Microsomal stability; mouse liver microsomes, read-out: intrinsic clearance): 121 µL/min/mg
half-life (Microsomal stability; mouse, liver microsomes): 11.5 min
EC50 (KOPN8 cells (MLL-ENL)): 0.063 ± 0.002 µM
EC50 (NOMO-1 cells (MLL-AF9)): 0.66 ± 0.02 µM

Reference: publication PMC8434109, “Synthesis and Biological Activity of a Cytostatic Inhibitor of MLLr Leukemia Targeting the DOT1L Protein” (Molecules, 2021)
